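Each compound was tested at five concentrations against cells in 96-well plates for 48 hours. At the GI50, growth is halved. The concentration for full growth arrest is given as TGI.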
Legend:
Test in all cases: NCI-60 cell line screen, 48 h
UO-31 renal = system: UO-31 renal
NCI-H522 lung = system: NCI-H522 lung
SK-MEL-5 melanoma = system: SK-MEL-5 melanoma
MDA-MB-231 breast = system: MDA-MB-231 breast
NCI-H226 lung = system: NCI-H226 lung
ACHN renal = system: ACHN renal
BT-549 breast = system: BT-549 breast
NCI-H460 lung = system: NCI-H460 lung
SR leukemia = system: SR leukemia
U251 CNS = system: U251 CNS

| SMILES | GI50 (UO-31 renal) [µM] | TGI (UO-31 renal) [µM] | GI50 (NCI-H522 lung) [µM] | TGI (NCI-H522 lung) [µM] | GI50 (SK-MEL-5 melanoma) [µM] | TGI (SK-MEL-5 melanoma) [µM] | GI50 (MDA-MB-231 breast) [µM] | TGI (MDA-MB-231 breast) [µM] | GI50 (NCI-H226 lung) [µM] | TGI (NCI-H226 lung) [µM] | GI50 (ACHN renal) [µM] | TGI (ACHN renal) [µM] | GI50 (BT-549 breast) [µM] | TGI (BT-549 breast) [µM] | GI50 (NCI-H460 lung) [µM] | TGI (NCI-H460 lung) [µM] | GI50 (SR leukemia) [µM] | TGI (SR leukemia) [µM] | GI50 (U251 CNS) [µM] | TGI (U251 CNS) [µM] |
| --- | --- | --- | --- | --- | --- | --- | --- | --- | --- | --- | --- | --- | --- | --- | --- | --- | --- | --- | --- | --- |
| CCCCCCCCCCNC(=O)CI | 1.58 | 3.04 | 0.151 | 0.331 | 1.96 | 4.72 | 1.66 | 3.29 | 2.19 | 8.84 | 1.65 | 3.08 | 1.73 | 3.35 | 3.05 | 9.66 | 0.204 | 0.64 | 1.58 | 3.14 |
| Nc1cc(Br)c(-c2nnc(CCC(=O)c3nc4ccccc4[nH]3)o2)c(Br)c1 | 4.06 | > 100 | 2.9 | 16.9 | 14.2 | > 100 | 10.1 | 86.8 | 22.6 | > 100 | 48 | > 100 | 6.82 | > 100 | 3.99 | 20.1 | 4.2 | > 100 | 3.5 | > 100 |
| O=C1Nc2ccccc2/C1=C1\CCc2cc(O)ccc21 | 1.67 | > 23.9 | 9.85 | > 25 | 6.62 | > 25 | 7.22 | > 25 | 12.4 | > 25 | 10.6 | > 25 | 8.47 | > 24.2 | 8.7 | > 25 | 4.25 | > 25 | 8.84 | > 25 |
